According to patent US20220120736A1, “METHODS AND ASSAYS FOR MODULATING GENE TRANSCRIPTION BY MODULATING CONDENSATES” (Whitehead Institute for Biomedical Research, priority 2018, published 2022):
Blank lines part the entries; values can stand above or below the compound they belong to.

Experiments:
Format in all cases: cell-based
[1] = molecular target: T1, OCT4 (FKBP-tagged) (Mus musculus, UniProt P20263+Q8C7D2); test: Western blot after OCT4 degradation in OCT4 degron line; details: dTag versus DMSO
T1 construct: an ESC line bearing endogenous knock-in of DNA encoding the FKBP protein fused to OCT4; HA (C); endogenous in cells; host or cells: V6.5 mouse ES cells (Med1-mEGFP background), homozygous Oct4-FKBP knock-in
Protocol: Cells were lysed in Cell Lytic M (Sigma-Aldrich C2978) with protease inhibitors (Roche, 11697498001). Lysate was run on a 3%-8% Tris-acetate gel or 10% Bis-Tris gel or 3-8% Bis-Tris gels at 80 V for ˜2 hrs, followed by 120 V until dye front reached the end of the gel. Protein was then wet transferred to a 0.45 μm PVDF membrane (Millipore, IPVH00010) in ice-cold transfer buffer (25 mM Tris, 192 mM glycine, 10% methanol) at 300 mA for 2 hours at 4° C. After transfer the membrane was blocked with 5% non-fat milk in TBS for 1 hour at room temperature, shaking. Membrane was then incubated with 1:1,000 of the indicated antibody (Table S4) diluted in 5% non-fat milk in TBST and incubated overnight at 4° C., with shaking. In the morning, the membrane was washed three times with TBST for 5 minutes at room temperature shaking for each wash. Membrane was incubated with 1:5,000 secondary antibodies for 1 hr at RT and washed three times in TBST for 5 minutes. Membranes were developed with ECL substrate (Thermo Scientific, 34080) and imaged using a CCD camera or exposed using film or with high sensitivity ECL.
The CRISPR/Cas9 system was used to genetically engineer ESC lines. Target-specific oligonucleotides were cloned into a plasmid carrying a codon-optimized version of Cas9 with GFP (gift from R. Jaenisch). […]

[2] = tested on: ER LBD point mutant-MED1 condensate in U2OS-Lac cells; test: LAC binding assay, ER LBD point mutants tethered to Lac array; details: ER mutants (Y537S, D538G)
Protocol: Constructs were assembled by NEB HIFI cloning in pSV2 mammalian expression vector containing an SV40 promoter driving expression of a CFP-LacI fusion protein. The activation domains and mutant activation domains of ESR1 were fused by the c-terminus to this recombinant protein, joined by the linker sequence […] (SEQ ID NO: 14). For some experiments a variant plasmid with mCherry in place of CFP was used. […] Cells were then plated on fibronectin-coated glass coverslips and transfected using lipofectamine 3000 (Thermofisher L3000015). For high MED1 conditions, a construct with a mammalian expression vector containing a PGK promoter driving the expression of MED1 fused to GFP was co-transfected. […]
For analysis of Lac array data, custom Python scripts were written to process and analyze image data gathered in Lac and tagged-protein channels. […] Segmented regions (also determined by measure.label) were then filtered based on minimum area (150 pixels), maximum area (2000 pixels), circularity (c=4pi*area/perimeter^2; 0.8), and presence in a nucleus as defined by the mask described above. A norm enrichment ratio was calculated by determining the mean intensity of the tagged-protein in the segmented Lac spot and dividing it by the mean intensity of the tagged-protein present in the same whole nucleus.

[3] = tested on: ER LBD (GAL4 DNA-binding domain fusion) in HEK293T cells; test: GAL4 transactivation assay; details: elevated MED1 levels; 10 nM Tamoxifen, 24 hours
From the text: (SEQ ID NO: 14). […] For high MED1 conditions, a construct with a mammalian expression vector containing a PGK promoter driving the expression of MED1 fused to GFP was co-transfected.

[4] = tested on: ER LBD-MED1 condensate in U2OS-Lac cells; test: Live cell imaging of U2OS-Lac cells with endogenously tagged MED1-mEGFP; details: after 10 nM B-Estradiol 45 minutes; 10 uM 4-Hydroxytamoxifen, 30 minutes
Protocol: Cells were imaged pre-treatment and 30 minutes after treatment with a 1:1000 dilution of DMSO or 10 uM 4-Hydroxytamoxifen in Estrogen-free DMEM. Quantification was performed in FIJI; the instrument background was subtracted from the average signal intensity in the array, then divided by the instrument background subtracted from an average nuclear signal to yield the normalized signal intensity.

T1 sequence (P20263 with tags, fused parts or gaps): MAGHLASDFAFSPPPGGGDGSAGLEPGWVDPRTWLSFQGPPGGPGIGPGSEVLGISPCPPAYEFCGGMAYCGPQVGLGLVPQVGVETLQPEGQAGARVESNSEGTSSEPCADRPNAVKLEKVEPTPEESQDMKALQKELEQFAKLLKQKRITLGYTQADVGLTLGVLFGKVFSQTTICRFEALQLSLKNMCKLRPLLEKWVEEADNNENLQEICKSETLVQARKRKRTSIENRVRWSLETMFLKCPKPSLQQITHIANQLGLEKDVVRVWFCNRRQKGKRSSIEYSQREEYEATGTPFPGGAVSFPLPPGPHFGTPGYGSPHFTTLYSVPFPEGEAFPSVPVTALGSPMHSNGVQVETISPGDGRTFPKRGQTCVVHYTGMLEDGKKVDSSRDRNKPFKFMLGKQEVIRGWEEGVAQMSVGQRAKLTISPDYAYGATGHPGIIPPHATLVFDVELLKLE
T1 sequence (Q8C7D2 whole entry, the tested form may be a part): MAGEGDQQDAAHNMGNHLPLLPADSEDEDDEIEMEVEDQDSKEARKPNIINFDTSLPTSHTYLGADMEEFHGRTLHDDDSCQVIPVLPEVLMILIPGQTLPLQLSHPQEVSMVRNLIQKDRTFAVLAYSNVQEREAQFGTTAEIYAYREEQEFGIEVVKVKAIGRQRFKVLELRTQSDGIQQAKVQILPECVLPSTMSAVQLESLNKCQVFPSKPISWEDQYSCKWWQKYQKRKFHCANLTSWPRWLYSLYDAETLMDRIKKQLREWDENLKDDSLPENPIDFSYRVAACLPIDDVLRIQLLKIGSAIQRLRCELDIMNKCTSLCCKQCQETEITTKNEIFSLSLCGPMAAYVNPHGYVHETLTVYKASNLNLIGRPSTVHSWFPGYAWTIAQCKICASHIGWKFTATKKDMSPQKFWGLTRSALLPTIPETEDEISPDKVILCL
T1 sequence (Q3U1J4 whole entry partner, the tested form may be a part): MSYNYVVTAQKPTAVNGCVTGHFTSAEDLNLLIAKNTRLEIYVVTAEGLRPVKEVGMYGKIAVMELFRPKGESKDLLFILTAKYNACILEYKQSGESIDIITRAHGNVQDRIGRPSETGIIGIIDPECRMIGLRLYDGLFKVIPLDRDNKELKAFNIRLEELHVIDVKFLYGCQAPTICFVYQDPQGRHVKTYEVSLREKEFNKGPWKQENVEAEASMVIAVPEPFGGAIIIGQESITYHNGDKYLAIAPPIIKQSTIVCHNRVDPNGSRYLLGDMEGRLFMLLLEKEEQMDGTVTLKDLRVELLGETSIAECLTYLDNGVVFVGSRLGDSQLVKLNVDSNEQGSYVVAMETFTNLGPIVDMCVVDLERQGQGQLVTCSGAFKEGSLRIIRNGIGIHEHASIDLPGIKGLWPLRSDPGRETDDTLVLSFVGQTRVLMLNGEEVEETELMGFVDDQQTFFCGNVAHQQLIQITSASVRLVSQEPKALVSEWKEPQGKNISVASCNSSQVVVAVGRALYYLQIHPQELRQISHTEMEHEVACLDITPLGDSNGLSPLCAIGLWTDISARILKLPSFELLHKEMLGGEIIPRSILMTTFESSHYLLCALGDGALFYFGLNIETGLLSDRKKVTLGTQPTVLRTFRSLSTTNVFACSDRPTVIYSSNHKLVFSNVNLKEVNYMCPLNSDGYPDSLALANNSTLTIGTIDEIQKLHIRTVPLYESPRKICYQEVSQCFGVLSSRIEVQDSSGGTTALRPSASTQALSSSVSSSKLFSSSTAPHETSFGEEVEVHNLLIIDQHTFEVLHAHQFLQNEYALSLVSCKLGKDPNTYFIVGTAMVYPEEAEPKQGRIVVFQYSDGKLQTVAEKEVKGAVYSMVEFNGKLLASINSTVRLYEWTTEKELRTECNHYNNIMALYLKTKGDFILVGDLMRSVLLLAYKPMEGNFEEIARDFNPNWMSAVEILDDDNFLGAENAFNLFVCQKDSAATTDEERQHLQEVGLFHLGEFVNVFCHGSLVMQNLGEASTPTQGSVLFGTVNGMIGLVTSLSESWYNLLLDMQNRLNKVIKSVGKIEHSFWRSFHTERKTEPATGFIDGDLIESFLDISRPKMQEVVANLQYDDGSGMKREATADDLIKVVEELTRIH

MED1 protein levels [1]: did not affect MED1 levels
OCT4 protein levels [1]: reduced OCT4 protein levels
SMILES: CC[C@H](C(=O)N1CCCC[C@H]1C(=O)O[C@H](CCc1ccc(OC)c(OC)c1)c1ccccc1OCC(=O)NCCCCCCCCNc1ccc2c(c1)C(=O)N(C1CCC(=O)NC1=O)C2=O)c1cc(OC)c(OC)c(OC)c1 (some centres unmarked) [dTag]

SMILES: C[C@]12CC[C@@H]3c4ccc(O)cc4CC[C@H]3[C@@H]1CC[C@@H]2O [estrogen, B-Estradiol]
MED1 condensate formation at tethered ER LBD, dependence on estrogen [2]: both in the presence and absence of estrogen

SMILES: CC/C(=C(\c1ccccc1)c1ccc(OCCN(C)C)cc1)c1ccccc1 [tamoxifen]
GAL4 transactivation with tamoxifen-bound ER [3]: showed activation
Effect on ER LBD-MED1 condensate, live cell imaging [4]: dissolves the ER LBD-MED1 condensate
